Experimental data published in patent publication US20220135622A1, “ANTIBACTERIAL PEPTIDES AND METHODS OF USE” (priority 2019, published 2022).
Values after ≈ are worked out from the molar mass of the structure shown. Read-outs that look alike come from different tables or passages of the source. Square brackets hold non-standard residues; d marks the D form. Peptide text beside a SMILES is read from it. Bip = N[C@@H](Cc1ccc(-c2ccccc2)cc1)C(=O)O; hPhe = N[C@@H](CCc1ccccc1)C(=O)O; Dap = NC[C@H](N)C(=O)O; Aib = CC(C)(N)C(=O)O

How the values were obtained:
P. aeruginosa = assay type: cell-based, Pseudomonas aeruginosa
Experimental: (§1) Bacterial growth conditions. LB or Mueller Hinton II cation-adjusted broth (MHB II, BBL 212322) was prepared according to manufacturer's instructions and supplemented with arabinose at 0.02% for overnight growth or at indicated concentrations in the description of the figures. Bacterial cultures were grown at 37° C. When appropriate, media was supplemented with kanamycin (50 μg/mL), carbenicillin (50 μg/mL), chloramphenicol (12.5 or 25 μg/mL), hygromycin (200 μg/mL), and/or gentamicin (10 μg/mL).
(§2) Peptide sensitivity and MIC assays. Lyophilized peptides (Smartox Biotechnology, CPC Scientific. ABclonal) were solubilized to 10 mM in Tris buffer, pH 8, prior to making a 2-fold dilution series in MHBII cation adjusted broth with highest final assay concentration of 400-800 μM. Bacteria were grown to log phase and added to final OD600˜0.001. The final EDTA concentration was 0.5 mM for E. coli strains and 0.125 mM for USA300. The final volume of 10 μL/well in a 384 well black, clear bottom plate (Corning) was spun <1 min at <250×g and then incubated at 37° C. After 4 h, an equal volume (10 μL) of BacTiter-Glo™ (Promega) was added to each well and luminescence was read after 5 min on an EnVision plate reader (PerkinElmer). To measure the minimal inhibitory concentrations (MICs), bacteria from fresh overnight plates or log phase cultures were diluted with or without EDTA and peptides as described above to final OD600˜0.0002. Plates were incubated at 37° C. for 20 h before measuring OD600 with an EnVision plate reader.

E. coli BW25113 = assay type: cell-based, Escherichia coli
Experimental: as §1, §2

K. pneumoniae = assay type: cell-based, Klebsiella pneumoniae
Experimental: as §1, §2

A. baumannii = assay type: cell-based, Acinetobacter baumannii
Experimental: as §1, §2

Row | SMILES | MIC R. aeruginosa (P. aeruginosa; Table 8) | MIC E. coli BW25113 (E. coli BW25113; Table 8) | MIC K. pneumoniae (K. pneumoniae; Table 8) | MIC A. baumannii (A. baumannii; Table 8) | MIC R. aeruginosa (P. aeruginosa) | MIC E. coli BW25113 (E. coli BW25113; BW25113) | MIC K. pneumoniae (K. pneumoniae) | MIC A. baumannii (A. baumannii)
1 | CSCC[C@H](NC(=O)[C@@H]1CCCN1C(=O)[C@H](Cc1ccc(O)cc1)NC(C)=O)C(=O)N[C@H](C(=O)N[C@@H](C)C(=O)N[C@@H](CCCNC(=N)N)C(=O)N[C@@H](CCCNC(=N)N)C(=O)N[C@@H](Cc1ccc(-c2ccccc2)cc1)C(=O)N[C@@H](CC(C)C)C(=O)N[C@@H](C)C(=O)N[C@@H](CCCCN)C(=O)N[C@@H](Cc1c[nH]c2ccccc12)C(=O)NCC(=O)N[C@@H](CC(C)C)C(=O)N[C@@H](CC(C)C)C(=O)N[C@@H](CCCNC(=N)N)C(N)=O)[C@@H](C)O [compound 88] (Ac-YPMTARR[Bip]LAKWGLLR-NH2) | 25.0 µM (≈ 52.4 µg/mL) | 100.0 µM (≈ 210 µg/mL) | 25.0 µM (≈ 52.4 µg/mL) | 12.5 µM (≈ 26.2 µg/mL) |  |  |  | 
2 | CSCC[C@H](NC(=O)[C@H](CN)NC(=O)[C@H](CCSC)NC(=O)[C@@H]1CCCN1C(=O)[C@H](Cc1ccc(O)cc1)NC(C)=O)C(=O)N[C@@H](CCCNC(=N)N)C(=O)N[C@@H](CCCNC(=N)N)C(=O)N[C@@H](Cc1c[nH]c2ccccc12)C(=O)N[C@@H](CC(C)C)C(=O)N[C@@H](CCC(=O)O)C(=O)N[C@@H](CCCCN)C(=O)N[C@@H](Cc1c[nH]c2ccccc12)C(=O)NCC(=O)N[C@@H](CC(C)C)C(=O)N[C@@H](CC(C)C)C(=O)N[C@@H](CCCNC(=N)N)C(N)=O [compound 89] (Ac-YPM[Dap]MRRWLEKWGLLR-NH2) |  |  |  |  | 100.0 µM (≈ 216 µg/mL) | 25.0 µM (≈ 54.1 µg/mL) | 25.0 µM (≈ 54.1 µg/mL) | 25.0 µM (≈ 54.1 µg/mL)
3 | CSCC[C@H](NC(=O)[C@@H]1CCCN1C(=O)[C@H](Cc1ccc(O)cc1)NC(C)=O)C(=O)N[C@@H](CN)C(=O)N[C@@H](Cc1ccccc1)C(=O)N[C@@H](CCCNC(=N)N)C(=O)N[C@@H](CCCNC(=N)N)C(=O)N[C@@H](Cc1ccc(-c2ccccc2)cc1)C(=O)N[C@@H](CC(C)C)C(=O)N[C@@H](CCC(=O)O)C(=O)N[C@@H](CCCCN)C(=O)N[C@@H](Cc1c[nH]c2ccccc12)C(=O)NCC(=O)N[C@@H](CC(C)C)C(=O)N[C@@H](CC(C)C)C(=O)N[C@@H](CCCNC(=N)N)C(N)=O [compound 90] (Ac-YPM[Dap]FRR[Bip]LEKWGLLR-NH2) | 25.0 µM (≈ 55.4 µg/mL) | 200.0 µM (≈ 443 µg/mL) | 50.0 µM (≈ 111 µg/mL) | 6.25 µM (≈ 13.8 µg/mL) |  |  |  | 
4 | CC(=O)N[C@@H](Cc1ccc(O)cc1)C(=O)N1CCC[C@H]1C(=O)N[C@@H](CCc1ccccc1)C(=O)N[C@H](C(=O)N[C@@H](C)C(=O)N[C@@H](CCCNC(=N)N)C(=O)N[C@@H](CCCNC(=N)N)C(=O)N[C@@H](Cc1ccccc1)C(=O)N[C@@H](CC(C)C)C(=O)N[C@@H](CCC(=O)O)C(=O)N[C@@H](CCCCN)C(=O)N[C@@H](Cc1c[nH]c2ccccc12)C(=O)NCC(=O)N[C@@H](CC(C)C)C(=O)N[C@@H](CC(C)C)C(=O)N[C@@H](CCCNC(=N)N)C(N)=O)[C@@H](C)O [compound 91] (Ac-YP[hPhe]TARRFLEKWGLLR-NH2) | >400.0 µM | 50.0 µM (≈ 105 µg/mL) | >400.0 µM | 50.0 µM (≈ 105 µg/mL) |  |  |  | 
5 | CSCC[C@H](NC(=O)[C@@H]1CCCN1C(=O)[C@H](Cc1ccc(O)cc1)NC(C)=O)C(=O)N[C@H](C(=O)N[C@H](C)C(=O)N[C@@H](CCCNC(=N)N)C(=O)N[C@@H](CCCNC(=N)N)C(=O)N[C@@H](Cc1ccccc1)C(=O)N[C@@H](CC(C)C)C(=O)N[C@@H](CCC(=O)O)C(=O)N[C@@H](CCCCN)C(=O)N[C@@H](Cc1c[nH]c2ccccc12)C(=O)NCC(=O)N[C@@H](CC(C)C)C(=O)N[C@@H](CC(C)C)C(=O)N[C@@H](CCCNC(=N)N)C(N)=O)[C@@H](C)O [compound 92] (Ac-YPMT[dA]RRFLEKWGLLR-NH2) | >400.0 µM | 200.0 µM (≈ 416 µg/mL) | >400.0 µM | 200.0 µM (≈ 416 µg/mL) |  |  |  | 
6 | CSCC[C@H](NC(=O)[C@@H]1CCCN1C(=O)[C@H](Cc1ccc(O)cc1)NC(C)=O)C(=O)N[C@H](C(=O)NC(C)(C)C(=O)N[C@@H](CCCNC(=N)N)C(=O)N[C@@H](CCCNC(=N)N)C(=O)N[C@@H](Cc1ccccc1)C(=O)N[C@@H](CC(C)C)C(=O)N[C@@H](CCC(=O)O)C(=O)N[C@@H](CCCCN)C(=O)N[C@@H](Cc1c[nH]c2ccccc12)C(=O)NCC(=O)N[C@@H](CC(C)C)C(=O)N[C@@H](CC(C)C)C(=O)N[C@@H](CCCNC(=N)N)C(N)=O)[C@@H](C)O [compound 93] (Ac-YPMT[Aib]RRFLEKWGLLR-NH2) | >400.0 µM | 200.0 µM (≈ 419 µg/mL) | 400.0 µM (≈ 837 µg/mL) | 50.0 µM (≈ 105 µg/mL) |  |  |  | 
